Reference: patent US12564568B2, “PKC pathway in Parkinson's Disease” (CEDARS-SINAI MEDICAL CENTER, priority 2018, dated 2026)
“Also recorded” adds a separate entry of the source.

Legend:
synuclein = experiment: Injection into the ventricles of WT mice, synuclein in striatum; type: in vivo, mouse; settings: 0.3, 3, and 30 uM injected into ventricles of WT mice; 1 and 5 days post injection
Protocol: In vivo, PEP stimulates synuclein degradation. Dosage studies of 0.3, 3, and 30 uM PEP was injected into the ventricles of WT mice.

SNCA = SNCA gene expression over PEP005 time-course (qPCR); type: cell-based, human; settings: 4 hours after PEP005 treatment
Protocol: qPCR: Total cellular RNA was isolated using TRIzol Reagent followed by Qiagen RNeasy Mini kit with DNase treatment. Total RNA (1 μg) was used for cDNA synthesis using the Quantitate Reverse Transcription Kit for cDNA synthesis for PCR (Qiagen). Real-time PCR was performed using the SYBR Green Supermix (BIO-RAD). The levels of expression of respective genes were normalized to corresponding GAPDH values and shown as fold change relative to the value of the control sample (ΔΔCt method)

α-synuclein [1] = experiment: Unilateral striatal injection in wild-type C57BL/6 mice, α-synuclein in striatum (western blot, IHC); settings: 215 ng dose, 3 days post-treatment
α-synuclein [2] = experiment: α-synuclein protein level in day 30 iPSC-derived mDA (DaN) cultures after drug treatment (western blot, immunostaining); type: cell-based, human; settings: in vitro, single 24-hour dose
[3] = tested on: tyrosine hydroxylase (TH); type: cell-based, human
Protocol: iPSC maintenance, mDA neuron differentiation and drug treatments: iPSCs were maintained in E8 media on Matrigel and passaged every 5 days at split ratios from 1:6 to 1:12 as needed using Versene. Only iPSCs between passage 17 and passage 35 were used in this study. For differentiation, iPSCs were grown to ˜80% confluency. Cells were singularized with Accutase (Millipore/Sigma #SCR005) (5 minutes at 37° C.) and plated onto Matrigel-coated 6-well plates (BD Biosciences) at 200K cells per cm^2 (for a fully confluent monolayer) in E8 media with 5 μM Y27632 (StemGent). 24 hours after plating, media was changed to Stage 1 (50% DMEM/F12, 50% Neurobasal, N2, B27-Vitamin A, LDN-193189 (LDN), SB431542 (SB)). Stage 1 media was changed each day (3 mL per well) for 3 days. Media was next switched to Stage 2 (50% DMEM/F12, 50% Neurobasal, N2, B27-Vitamin A, LDN, SB, Purmorphamine (PMN), CHIR99021 (CHIR), Sonic hedgehog (SHH), Fibroblast Growth Factor 8 (FGF8)). Stage 2 media was changed each day (3 mL per well) for 4 days. Media was then switched to Stage 3 (50% DMEM/F12, 50% Neurobasal, N2, B27-Vitamin A, LDN, CHIR, all-trans-Retinoic acid (ATRA)). Stage 3 media was changed each day (3 mL per well) for 4 days. Finally, media was switched to Stage 4 (50% DMEM/F12, 50% Neurobasal, N2, B27+Vitamin A, Brain-Derived Neurotrophic Factor (BDNF), Glial Cell Line-Derived Neurotrophic Factor (GDNF), dibutyryl cyclic-AMP sodium salt (dbCAMP), L-Ascorbic Acid (AA), γ-Secretase inhibitor (DAPT), CHIR, Transforming Growth Factor beta-3 (TGF β3)). Stage 4 media was changed each day (3 mL per well) for 3 days. On day 15, cells were dissociated to single cells using Accutase (20 mins at 37° C.) and gently lifted. Dissociated cells were resuspended in Maturation Medium (50% DMEM/F12, 50% Neurobasal, N2, B27+Vitamin A, BDNF, GDNF, dbCAMP, AA, DAPT, TGF3) plus 5 μM Y27632 and reseeded onto Matrigel-coated 6-well plates at 200 k/cm^2 in 1 mL total volume or onto Matrigel-coated L-glass coverslips in a 24-well plate at 200 k/50 μL drop. Cells were allowed to attach for 45 mins at 37° C. and Maturation Medium was then added to final volumes of 3 mL per well for 6-well plates or 1.5 mL per well for 24-well plates with coverslips. A full medium change was performed 48-hours post-seeding and medium was changed every 3 days until day 30. For drug treatments, cells at day-27 were fed with Maturation Medium containing the indicated drug and cells were analyzed at day 30.
Analytical flow cytometry: Day-30 cultures in 6-well plates were washed once in phosphate buffered saline (PBS) then 1 mL Accutase was added to each well and incubated for 25 mins at 37° C. or until the cells fully lifted. Cells were washed with an additional 2 mL Maturation Medium and very gently triturated until large clumps were no longer visible at which point cells were pelleted by centrifugation (1500 RPM for 3 mins). Cells were gently resuspended in 4% paraformaldehyde (PFA) in PBS and allowed to fix for 10-15 mins at room temperature. Fixed single cells were permeabilized using 1% Trition X-100 (Sigma-Aldrich) and stained using primary antibodies against TH (1:500 Immunostar, 22941), α-synuclein (1:1000 Abcam, ab138501), and MAP2ab (1:1000 Sigma-Aldrich, M1406), or isotype controls at same dilution (Cell Signaling IgG Isotype Control rabbit #3900S and mouse #5415S). Secondary antibodies (Alexa Fluor 488 and 594 donkey anti-mouse and donkey anti-rabbit, Invitrogen) were used at 1:500. Stained samples were quantified on an LSR Fortessa cytometer using BD FACSDiva software.
Immunocytochemistry and imaging: mDA neuron cultures were plated on L-glass coverslips and grown as above. Day 30 neurons were fixed in 4% PFA at room temperature for 10-15 mins. […]

[4] = Dose ranging study in rat; type: in vivo; settings: rats, for 7 days
Protocol: For dose ranging studies in rat and mini-pig. Repeated doses up to 15 ug/kg/day for 7 days were tolerated in rats, 5 ug/kg in pigs

PKC C1 domains = settings: cited from earlier work

## C/C=C(/C)C(=O)O[C@H]1C(C)=C[C@]23C(=O)[C@@H](C=C(CO)[C@@H](O)[C@]12O)[C@H]1[C@@H](C[C@H]3C)C1(C)C [PEP005, ingenol-3-angelate]
synuclein
  synuclein in mouse striatum: Reduction
SNCA
  SNCA expression (qPCR): downregulated
α-synuclein [1]
  α-synuclein levels in striatum, injected (L) relative to contralateral side (R): significantly reduced; also recorded: reduces
α-synuclein [2]
  duration for which synuclein levels remained depressed: 168 h
[3]; PEP005-treated mDA cultures
  TH by immunostaining: enhanced
[3]; both control and PD cultures, 3 days treatment from day 27, listed as PEP
  amount of TH enzyme present: increase
[3]; d30 mDA cultures, PEP005 72 hrs
  number of TH neurons (flow cytometry): did not result in an increased number
[3]; d30 mDA cultures, PEP005 72 hrs, relative to untreated
  level of TH expression in neurons (flow cytometry): significantly higher levels
[4]
  tolerated repeated dose: up to 15 ug/kg/day
PKC C1 domains
  affinity for PKC C1 domains: subnanomolar
